Laboratory results from US12091393B2, “Small molecule vaccine adjuvant for enhancing or prolonging immune response” (The Regents of the University of California, priority 2018, dated 2024).
Entries after “also recorded” stand apart in the source; their conditions may differ. Where two headings read alike, the source gives them in different places.

Assays:
BMDCs [1] = assay: Gene expression in BMDCs; format: cell-based
BMDCs [2] = assay: Co-stimulatory marker expression in BMDCs; format: cell-based; settings: for Co-stimulatory markers: CD40 and CD86 induce by LPS or MPLA: BMDCs
THP-1 cells [3] = assay: Cell viability assay (MTT); format: cell-based; settings: compound 5 μM alone, 18 h, normalized to DMSO as 100%
Outline: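 THP-1 cells in RPMI/10% FBS got compound at a final 5 μM (0.05% DMSO) for 18 h. MTT (0.5 mg/mL) was then added for 4 to 6 h, followed by SDS/HCl lysis overnight. Absorbance was read at 570 nm against 650 nm reference.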

THP-1 cells [4] = assay: Co-stimulatory marker expression in THP-1 cells; format: cell-based
NF-κB [5] = assay: cell-based NF-κB FRET assay
From the text: Site A was assigned the 4-substituent of thiazole ring, site B was the thiazole ring itself, site C was the central amide bond in the structure, site D was the benzene ring bearing 1,4-carboxyl and sulfamoyl group, site E was the sulfonamide functional group and site F was the amide substituent on the sulfamoyl group.

BMDCs [6] = assay: Cytokine production in BMDCs; format: cell-based; settings: for cytokine production (mIL-12, mIL-6, mTNFalpha) induced by Dectin1: with Dectin1 (FIGS. 4A-4C)
THP-1 cells [7] = assay: RNA seq in THP-1 cells; format: cell-based
NF-κB [8] = assay: Measurement of NF-κB activation using THP1-Blue NF-κB cells (SEAP); format: cell-based; settings: 20 h, two point normalized, compound 1 as 200%
JNK, P38 and Erk1/2 = assay: MAPK activation in THP-1 cells; format: cell-based; settings: #42 alone
NF-kB = NF-kB phosphorylation and nuclear localization in THP-1 cells (ICC and WB); format: cell-based
BMDCs [9] = assay: Cytotoxicity / cell viability of BMDCs; format: cell-based

Cc1ccc(C)c(-c2csc(NC(=O)c3ccc(S(=O)(=O)N4CCCCC4)cc3)n2)c1 [Compound 1, N-(4-(2,5-dimethylphenyl)thiazol-2-yl)-4-(piperidin-1-ylsulfonyl)benzamide]
Gene expression: CD40, IL-12. CXCL5 expression (BMDCs [1]; BMDCs): Enhancement of CD40, IL-12.
CD40, CXCL10 and IL-12 gene expression kinetics (BMDCs [1]; by 10 hours after exposure, BDMCs, LPS and compound 42 (FIG. 7)): upregulated
co-stimulatory molecule expression induced by LPS (BMDCs [2]; BDMCs, LPS (FIGS. 5A-5G)): enhances
co-stimulatory molecule expression induced by MPLA (BMDCs [2]; BDMCs, MPLA (FIGS. 6A-6F)): enhances
Co-stimulatory markers: CD40 and CD86 induce by LPS or MPLA (BMDCs [2]; listed as 42): enhanced
Co-stimulatory markers: CD40 and CD86 induce by LPS or MPLA (BMDCs [2]; listed as #42): enhanced; also recorded: Enhancement of CD40 and CD86
MTT Compound alone % Viability (THP-1 cells [3]): 102.81%
Co-stimulatory markers: CD40 and CD86 induce by LPS (THP-1 cells [4]): Enhancement of CD40 and CD86
NF-κB FRET Compound + LPS % Activation (NF-κB [5]; compound + LPS, two point normalized, compound 1 as 200%, LPS (10 ng/mL) as 100%): 200.00%
enhancement of NF-κB activity by LPS at 12 h (confirmatory kinetic screening) (NF-κB [5]; in presence of LPS, 12 h incubation): most potent
cytokine production (mIL-12, mIL-6, mTNFalpha) induced by Dectin1 (BMDCs [6]; listed as 42): not enhanced; also recorded: not by Dectin1
cytokine production (mIL-12, mIL-6, mTNFalpha) induced by Dectin1 (BMDCs [6]; listed as #42): not by Dectin1
cytokine production induced by TLR ligands (BMDCs [6]; with a TLR ligand (FIGS. 3-4)): enhanced
RNA seq (THP-1 cells [7]): Induction of CSF-1 and LIF
activity at 5 µM (NF-κB [8]; compound 5 μM + LPS, LPS (10 ng/mL) as 100%, read-out: NF-κB SEAP Compound + LPS % Activation): 200%
activity at 5 µM (NF-κB [8]; compound 5 μM alone, LPS or DMSO as 100%, read-out: NF-κB SEAP Compound alone % Activation): 200%
MAPK activation: phosphorylation of JNK, P38 and Erk1/2 (JNK, P38 and Erk1/2; listed as 42): induced
MAPK activation: phosphorylation of JNK, P38 and Erk1/2 (JNK, P38 and Erk1/2; listed as #42): phosphorylation of JNK, P38 and Erk1/2
phosphorylation of NFkB, combination of LPS and compound (NF-kB; LPS + compound 42): synergistic
NF-kB phosphorylation and nuclear localization induced by LPS (ICC and WB) (NF-kB; THP-1 cells, with LPS, listed as #42): prolonged; also recorded: Prolongation of NF-kB
phosphorylation of NF-kB by compound alone (NF-kB; compound 42 alone (FIGS. 9A-9C)): induced and sustained
reactogenicity (Reactogenicity (FIG. 21)): not reactogenic
Cytotoxicity (BMDCs [9]): Enhancement of cell viability
